“Also recorded” adds a separate entry of the source.
What was measured:
[1] = test system: collagen expression; matrix metalloproteinases (MMPs) and TIMPs; settings: reported; cited from earlier work
SIV infection = assay: 24-week study of pirfenidone plus ARV versus ARV only in SIV infection (FIG. 6 protocol, Example 4); type: in vivo
Method: FIG. 6 depicts a study protocol wherein pirfenidone is administered from Week −2 (relative to SIV infection) through the end of the study and co-administration of antiretroviral therapy is initiated at Week 8 and continued through the end of the study.
This example describes a 24-week study according to the protocol depicted in FIG. 6. In short, there were two groups in the study. The first group (group C as depicted in FIG. 6) received only ARV beginning at Week 8 (relative to SIV infection) of the study and continuing through week 24. The second group (group D as depicted in FIG. 6) received pirfenidone beginning at week −2 of the study and ARV beginning at Week 8. Both pirfenidone and ARV were then co-administered through Week 24 of the study. Tissues were biopsied at Week −2. Additional biopsies were conducted at Weeks 12, 16 and 24 (after sacrifice of the animal).

SIV MAC239 = assay: Pirfenidone in SIV-infected non-human primate model (FIG. 1 protocol, Example 2); type: in vivo
Text: Venous blood will be used to measure CD4^+ cell count by flow cytometry. Tissue biopsies (LN and ileal GALT samples) are divided; one portion will be processed by immunohistochemical staining for quantitative image analysis to determine the absolute size of the total CD4^+ cell population, and the remaining portion will be processed by flow cytometry to proportionately quantify CD4^+ cells (total, naïve, central memory [CM], and effector memory [EM] T cells). These methods have been published elsewhere [Schacker et al., 2006, Clinical and Vaccine Immunology 13:556-60; Schacker et al., 2005, AIDS 19:2169-71; Schacker et al., 2002, J Clin Invest 110:1133-9; Schacker J Infect Dis 186:1092-7]. For flow cytometry, a portion of LN tissue and GALT will be placed on ice and CD4^+ cells are isolated within 24 hours by gently separating the cells from surrounding tissue by using a mesh screen. One million cells are washed once in FACS wash (PBS supplemented with 0.1% sodium azide and 2% bovine serum albumin; Sigma). After aspiration of the supernatant, cells will be stained with peridin clorophylla protein-conjugated CD4, allophycocyanin conjugated CD8, phycoerythrin conjugated CD27, and fluorescein isothiocyanate-conjugated CD45RO (all BD Pharmingen), and incubated for 30 min at 4° C., followed by another wash. Cells will be fixed with 1% paraformaldahyde (Electron Microscopy Sciences) and analyzed on a FACS Calibur flow cytometer (BD Pharmingen). Lymphocytes will be gated on the basis of characteristic forward and side scatter properties, followed by separation into CD4^+ T cells and CD8^+ T cells on the basis of expression of CD4 and CD8. Naive T cells are classified by expression of CD27 without expression of CD45RO, as described elsewhere [Brenchley et al., 2003, Blood 101:2711-20]. CM T cells will be classified by coexpression of CD27 and CD45RO, and EM T cells are classified by lack of CD27 expression.
To quantify the total CD4^+ T cell population in each compartment, 4-μm sections will be prepared from the fixed tissues and stained with antibody for CD4 by using either clone 1F6 (Ventana Medical Systems) or clone 4B12 (Neomarkers; Lab Vision). Images will be captured to quantify the percentage of tissue area occupied by CD4 by using PHOTOSHOP CS2, version 9.0 imaging software (ADOBE SYSTEMS, Inc.) with plug-ins from REINDEER GRAPHICS. Inc.
To quantify collagen in the TZ, methods similar to those previously published can be used [Schacker et al., 2002, J. Clin. Investig. 110:1133-1139]. Sections (4 μm) are stained using a modified trichrome stain to identify collagen fibers, and approximately 18 images from the TZ are captured and transported into PHOTOSHOP CS imaging software (ADOBE SYSTEMS, Inc.). Image analysis tools from REINDEER GRAPHICS, Inc. (Asheville, N.C.) may provide better sensitivity for isolating collagen fibers to quantify the percent area occupied by collagen.
In this study, six animals were divided into two groups of three animals each. One group received pirfenidone for 2 weeks and then was infected with SIV MAC239. […] Pirfenidone was continued for 12 weeks following infection and then discontinued for 12 weeks (i.e., week 24) and then restarted. Thus, the pirfenidone-treated group would receive pirfenidone from week −2 to week 12 (14 weeks) and from week 24 to week 36 (12 weeks) for a […]. […] The dose of pirfenidone used was 200 mg/kg orally, twice daily (BID) for a total daily dose of 400 mg/kg/day. This corresponds to a human dose of approximately 6.5 mg/kg BID.
A diagram of the protocol can be seen in FIG. 1. Lymph node and rectal biopsy samples were collected at day 0 and again at weeks 4, 12, 24, and 36 after infection. […]

[2] = test system: TNF-α, TGF-β1, bFGF, PDGF, and EGF; settings: reported in Zhang et al. 1998; Cain et al. 1998; cited from earlier work

What does the source list for `Cc1ccc(=O)n(-c2ccccc2)c1` [pirfenidone]?
balance of matrix metalloproteinases (MMPs) and their endogenous inhibitors (TIMPs) [1]: alter; collagen expression [1]: decrease; proportion of the TZ occupied by collagen (composite, FIG. 12A) (SIV infection; ARV + pirfenidone arm vs ARV only): lower; increase in the TZ area staining positive for CD4+ T cells upon initiation of ARV (SIV infection; animals treated with pirfenidone vs ARV only, FIG. 11D): greater increase; rate of change in CD4+ area in TZ (SIV infection; co-administration of pirfenidone and ARV relative to ARV alone, FIG. 12B): improves; absolute number of naïve CD4 T cells of the TZ (SIV infection; group D (pirfenidone + ARV) relative to group C (ARV only), week 16 through week 24, FIG. 9): increase; number of CD4 T cells in the TZ (TZ area staining positive for CD4+ T cells) (SIV infection; group D (pirfenidone + ARV) relative to group C (ARV only), week 16 through week 24, FIGS. 8, 11D): increased; also recorded: more of the TZ stains positive for CD4^+ T cells; percentage of CD4 T cells in GALT (SIV infection; group D (pirfenidone + ARV) relative to group C (ARV only), week 24, FIG. 10): increased; percentage area of the T cell zone with collagen (SIV infection; group D (pirfenidone from week -2 + ARV from week 8) relative to group C (ARV only), FIGS. 7, 11B): significantly lower; also recorded: significant reduction; tolerability, adverse effects or toxicity (SIV MAC239; 200 mg/kg orally BID (400 mg/kg/day)): well-tolerated without adverse effects or toxicity; peripheral blood CD4 T cell count (SIV MAC239; pirfenidone 200 mg/kg BID orally vs animals not given pirfenidone, FIG. 3A): no significant change; also recorded: no obvious difference; percent CD4 (CD4%) in peripheral blood (SIV MAC239; pirfenidone 200 mg/kg BID orally vs animals not given pirfenidone, FIG. 3B): no significant change; also recorded: no obvious difference; plasma SIV RNA load (viral load) (SIV MAC239; pirfenidone 200 mg/kg BID orally vs animals not given pirfenidone, FIG. 3C): no significant change; also recorded: no obvious difference; fibrosis (percent area of T cell zone occupied by collagen) in lymph nodes (SIV MAC239; pirfenidone 200 mg/kg BID vs animals not given pirfenidone, FIGS. 4, 5A, 11A): decreased; also recorded: significant reduction; also recorded: less fibrosis; also recorded: significant difference; size of the CD4+ T cell population (area staining positive for CD4) in lymph node T cell zone (SIV MAC239; pirfenidone 200 mg/kg BID vs animals not given pirfenidone, FIGS. 4, 5B, 11C): increased; also recorded: more of the TZ stains positive for CD4^+ T cells; also recorded: higher CD4 numbers; also recorded: significant difference; proportion of the TZ occupied by collagen (composite, FIG. 12A) (SIV MAC239; pirfenidone only arm vs no treatment): lower; CD4 population in Peyer's Patches (SIV MAC239; pirfenidone vs control animals, FIG. 4D): higher; excessive biosynthesis or release of various cytokines such as TNF-α, TGF-β1, bFGF, PDGF, and EGF [2]: inhibit

— patent publication US20120014917A1, “METHODS OF TREATING HIV PATIENTS WITH ANTI-FIBROTICS” (University of Minnesota, priority 2009, published 2012)
